The text below walks through data of the NIST ThermoML archive (doi:10.1021/je200681k).

For data set [1] the following is noted: Crystal; DTA.
Data set [2] in a line: Molar enthalpy of transition or fusion. Particulars: Crystal; DSC.

Numbers after ± are expanded uncertainties.

On to `O=C(O)c1ccccc1` [benzoic acid], for which, in data set [1], the Normal melting temperature turned out to be 122.93 ± 0.53 °C. For the same compound, in data set [2], the “Molar enthalpy of transition or fusion” value amounted to 4.47 ± 0.172 kcal/mol.
Take `O=C(O)CCCCCC(=O)O` [1,7-heptanedioic acid]: the Normal melting temperature in data set [1] was found to be 104.2 ± 0.53 °C. Besides, the “Molar enthalpy of transition or fusion” value in data set [2] is 6.88 ± 0.287 kcal/mol.
The corresponding values for `CC(C(=O)O)C(C)C(=O)O` (stereo not drawn) [2,3-dimethyl-1,4-butanedioic acid] are 121.33 ± 0.53 °C and 4.04 ± 0.167 kcal/mol.
On to `CC(CC(=O)O)CC(=O)O` [3-methylpentanedioic acid], for which, in data set [1], the Normal melting temperature amounted to 85.46 ± 0.53 °C. Also, the “Molar enthalpy of transition or fusion” value in data set [2] was determined as 7.41 ± 0.335 kcal/mol.
